One experiment deals with adenosine A2B receptor (Homo sapiens (Human), UniProt P29275). As to the kind of experiment: Adenosine receptor activity assay (Table 1), A2B activity. It is filed as biochemical. The following applies: for IC50: read-out: Ave A2B cAMP IC50.
The next experiment deals with adenosine A2A receptor (Homo sapiens (Human), UniProt P29274). The experiment is described as follows: Adenosine receptor activity assay (Table 1), A2A activity. In kind it is biochemical. The settings on record: read-out: Ave A2A cAMP IC50.
Sequence of adenosine A2A receptor (P29274 whole entry): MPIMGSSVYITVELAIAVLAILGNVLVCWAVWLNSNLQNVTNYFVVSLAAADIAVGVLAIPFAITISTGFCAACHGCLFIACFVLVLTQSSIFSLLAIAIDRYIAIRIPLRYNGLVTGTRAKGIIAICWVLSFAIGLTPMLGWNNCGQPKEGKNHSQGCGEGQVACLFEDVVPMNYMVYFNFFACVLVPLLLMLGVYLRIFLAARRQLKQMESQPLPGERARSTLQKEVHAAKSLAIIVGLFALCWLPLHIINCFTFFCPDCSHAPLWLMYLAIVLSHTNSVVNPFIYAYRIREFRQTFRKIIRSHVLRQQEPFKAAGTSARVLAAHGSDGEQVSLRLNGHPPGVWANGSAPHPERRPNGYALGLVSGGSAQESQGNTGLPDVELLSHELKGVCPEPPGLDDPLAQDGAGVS
[1] abbreviates: A2A activity to A2B activity (A2A/A2B).
Where [2] appears, read: A2A activity to the A2B activity, A2A/A2B.

SMILES strings stand for the structures. Bounds are passed on as bounds.

The values that follow come from US11254686B1 (Corvus Pharmaceuticals, Inc., priority 2017, dated 2022).

Sequence of adenosine A2B receptor (P29275 whole entry): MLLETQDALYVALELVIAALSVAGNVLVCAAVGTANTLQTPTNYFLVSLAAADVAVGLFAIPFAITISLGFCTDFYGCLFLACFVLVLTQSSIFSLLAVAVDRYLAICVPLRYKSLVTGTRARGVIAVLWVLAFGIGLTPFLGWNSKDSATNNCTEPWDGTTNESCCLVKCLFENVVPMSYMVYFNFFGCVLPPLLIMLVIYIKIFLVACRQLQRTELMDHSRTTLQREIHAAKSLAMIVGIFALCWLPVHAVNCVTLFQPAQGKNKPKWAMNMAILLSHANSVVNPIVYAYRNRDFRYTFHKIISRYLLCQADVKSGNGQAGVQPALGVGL

As for `N[C@H]1CCN(C(=O)c2nc(NCc3cc(F)cc(F)c3)nc3ccsc23)C1` [Example Z371, (S)-(3-Aminopyrrolidin-1-yl)(2-((3,5-difluorobenzyl)amino)thieno[3,2-d]pyrimidin-4-yl)methanone], at adenosine A2B receptor (setting [1]), the Ratio was found to be 11.56. In addition, the IC50 at adenosine A2B receptor and on adenosine A2A receptor was greater than 500 nM throughout.
In the case of `Cc1cc2nc(N[C@@H](C)c3cncc(F)c3)nc(C(=O)NCCN3CCOCC3)c2s1` [Example Z372, (S)-2-((1-(5-Fluoropyridin-3-yl)ethyl)amino)-6-methyl-N-(2-morpholinoethyl)thieno[3,2-d]pyrimidine-4-carboxamide], the Ratio on adenosine A2B receptor (setting [1]) worked out at 33.10. Moreover, the values for the IC50 on adenosine A2B receptor and at adenosine A2A receptor were 50 to 100 nM and greater than 500 nM, respectively.
For the compound `Cc1cc2nc(N[C@@H](C)c3cccnc3)nc(C(=O)NCC3CCOCC3)c2s1` [Example Z375, (S)-6-Methyl-2-((1-(pyridin-3-yl)ethyl)amino)-N-((tetrahydro-2H-pyran-4-yl)methyl)thieno[3,2-d]pyrimidine-4-carboxamide], the Ratio at adenosine A2B receptor (setting [1]) is on record as 7.89. Besides, the IC50 at adenosine A2B receptor was in the range of 10 to 50 nM; at adenosine A2A receptor, 100 to 500 nM.
As for `Cc1cc2nc(N[C@@H](C)c3cccnc3)nc(C(=O)NCC3CCNCC3)c2s1` [Example Z377, (S)-6-Methyl-N-(piperidin-4-ylmethyl)-2-((1-(pyridin-3-yl)ethyl)amino)thieno[3,2-d]pyrimidine-4-carboxamide], the Ratio on adenosine A2B receptor (setting [1]) came to 39.59. Besides, the IC50 at adenosine A2B receptor is 100 to 500 nM; at adenosine A2A receptor it was greater than 500 nM.
Taken in the same sequence, the figures for `Cc1cc2nc(N[C@@H](C)c3cccnc3)nc(C(=O)NCCN3CCOCC3)c2s1` [Example Z378, (S)-6-Methyl-N-(2-morpholinoethyl)-2-((1-(pyridin-3-yl)ethyl)amino)thieno[3,2-d]pyrimidine-4-carboxamide] were 15.93, 100 to 500 nM and greater than 500 nM.
Taken in the same sequence, the figures for `C[C@H](Nc1nc(C(=O)N2CCC(C(=O)O)C2)c2sccc2n1)c1cncc(F)c1` (stereo partly drawn) [Example Z379, 1-(2-(((S)-1-(5-Fluoropyridin-3-yl)ethyl)amino)thieno[3,2-d]pyrimidine-4-carbonyl)pyrrolidine-3-carboxylic acid] were 68.03, 100 to 500 nM and greater than 500 nM.
As for `C[C@H](Nc1nc(C(=O)N2CCC(C(=O)O)C2)c2sccc2n1)c1ccccn1` (stereo partly drawn) [Example Z380, 1-(2-(((S)-1-(Pyridin-2-yl)ethyl)amino)thieno[3,2-d]pyrimidine-4-carbonyl)pyrrolidine-3-carboxylic acid], the Ratio on adenosine A2B receptor (setting [1]) is 13.21. Further, the IC50 on adenosine A2B receptor and on adenosine A2A receptor was greater than 500 nM throughout.
Regarding `C[C@H](Nc1nc(C(=O)N2CCNC2)c2sccc2n1)c1cncc(F)c1` [Example Z381, (S)-(2-((1-(5-Fluoropyridin-3-yl)ethyl)amino)thieno[3,2-d]pyrimidin-4-yl)(imidazolidin-1-yl)methanone], on adenosine A2B receptor (setting [1]), the Ratio turned out to be 47.20. Further, the results for the IC50 on adenosine A2B receptor and at adenosine A2A receptor were 10 to 50 nM and greater than 500 nM, respectively.
`C[C@H](Nc1nc(C(=O)NCCc2ccc(Cl)cc2)c2sccc2n1)c1cncc(F)c1` [Example Z385, (S)—N-(4-Chlorophenethyl)-2-((1-(5-fluoropyridin-3-yl)ethyl)amino)thieno[3,2-d]pyrimidine-4-carboxamide]: the Ratio at adenosine A2B receptor (setting [1]) amounted to 7.44. The IC50 was 50 to 100 nM on adenosine A2B receptor and greater than 500 nM on adenosine A2A receptor.
Regarding `Cc1cc2nc(N[C@@H](C)c3cccnc3)nc(C(=O)NC[C@@H]3CCOC3)c2s1` [Example Z387, 6-Methyl-2-(((S)-1-(pyridin-3-yl)ethyl)amino)-N—(((S)-tetrahydrofuran-3-yl)methyl)thieno[3,2-d]pyrimidine-4-carboxamide], the Ratio at adenosine A2B receptor (setting [1]) was determined as 20.10. Besides, the IC50 is 50 to 100 nM on adenosine A2B receptor and greater than 500 nM on adenosine A2A receptor.
For `Cc1cc2nc(N[C@@H](C)c3cccnc3)nc(C(=O)NC[C@H]3CCOC3)c2s1` [Example Z388, 6-Methyl-2-(((S)-1-(pyridin-3-yl)ethyl)amino)-N—(((R)-tetrahydrofuran-3-yl)methyl)thieno[3,2-d]pyrimidine-4-carboxamide], the Ratio on adenosine A2B receptor (setting [1]) is on record as 10.69. Further, the IC50 is 50 to 100 nM at adenosine A2B receptor and greater than 500 nM at adenosine A2A receptor.
For the compound `C[C@H](NC(=O)c1nc(N[C@@H](C)c2ccccc2)nc2ccsc12)c1ccccc1` [Example Z394, N—((S)-1-Phenylethyl)-2-(((S)-1-phenylethyl)amino)thieno[3,2-d]pyrimidine-4-carboxamide], the Ratio on adenosine A2B receptor (setting [1]) is 0.87. The IC50 on adenosine A2B receptor and on adenosine A2A receptor was 100 to 500 nM throughout.
For `C[C@H](Nc1nc(C(=O)N[C@@H]2CC[C@@H](O)C2)c2sccc2n1)c1cncc(F)c1` [Example Z395, 2-(((S)-1-(5-Fluoropyridin-3-yl)ethyl)amino)-N-((1R,3R)-3-hydroxycyclopentyl)thieno[3,2-d]pyrimidine-4-carboxamide], the Ratio on adenosine A2B receptor (setting [1]) amounted to 32.64. In addition, the results for the IC50 at adenosine A2B receptor and on adenosine A2A receptor were 10 to 50 nM and 100 to 500 nM, respectively.
For the compound `C[C@H](Nc1nc(C(=O)N(C)CCc2ccc(O)cc2)c2sccc2n1)c1cncc(F)c1` [Example Z396, (S)-2-((1-(5-Fluoropyridin-3-yl)ethyl)amino)-N-(4-hydroxyphenethyl)-N-methylthieno[3,2-d]pyrimidine-4-carboxamide], the Ratio on adenosine A2B receptor (setting [1]) stood at 6.83. For the same compound, the IC50 on adenosine A2B receptor and on adenosine A2A receptor was greater than 500 nM in each case.
In the case of `C[C@H](Nc1nc(C(=O)NC2CNC2)c2sccc2n1)c1cncc(F)c1` [Example Z397, (S)—N-(Azetidin-3-yl)-2-((1-(5-fluoropyridin-3-yl)ethyl)amino)thieno[3,2-d]pyrimidine-4-carboxamide], the Ratio on adenosine A2B receptor (setting [1]) is reported as 11.51. The IC50 on adenosine A2B receptor and at adenosine A2A receptor was greater than 500 nM each time.
As to `COc1ccc(Oc2cc(CNC(=O)c3nc(N[C@@H](C)c4cncc(F)c4)nc4ccsc34)ccn2)cc1` [Example Z398, (S)-2-((1-(5-Fluoropyridin-3-yl)ethyl)amino)-N-((2-(4-methoxyphenoxy)pyridin-4-yl)methyl)thieno[3,2-d]pyrimidine-4-carboxamide], at adenosine A2B receptor (setting [1]), the Ratio worked out at 2.82. Also, the IC50 on adenosine A2B receptor and at adenosine A2A receptor was 100 to 500 nM each time.
Turning to `CO[C@@H](C)CNC(=O)c1nc(N[C@@H](C)c2cccnc2)nc2cc(C)sc12` [Example Z399, N—((S)-2-Methoxypropyl)-6-methyl-2-(((S)-1-(pyridin-3-yl)ethyl)amino)thieno[3,2-d]pyrimidine-4-carboxamide], on adenosine A2B receptor (setting [2]), the Ratio is 161.94. For the same compound, the IC50 on adenosine A2B receptor is 10 to 50 nM; at adenosine A2A receptor it was greater than 500 nM.
For `CO[C@H](C)CNC(=O)c1nc(N[C@@H](C)c2cccnc2)nc2cc(C)sc12` [Example Z400, N—((R)-2-Methoxypropyl)-6-methyl-2-(((S)-1-(pyridin-3-yl)ethyl)amino)thieno[3,2-d]pyrimidine-4-carboxamide], the Ratio at adenosine A2B receptor (setting [2]) is on record as 12.22. Further, the IC50 at adenosine A2B receptor was 50 to 100 nM; at adenosine A2A receptor it was greater than 500 nM.
For the compound `C[C@H](Nc1nc(C(=O)N2CCCC2)c2sccc2n1)c1ccnc(F)c1` [Example Z406, (S)-(2-((1-(2-Fluoropyridin-4-yl)ethyl)amino)thieno[3,2-d]pyrimidin-4-yl)(pyrrolidin-1-yl)methanone], the IC50 on adenosine A2B receptor lay within 10 to 50 nM; on adenosine A2A receptor, 100 to 500 nM.
For `C[C@H](Nc1nc(C(=O)N2CC[C@H](O)C2)c2sccc2n1)c1ccnc(F)c1` [Example Z407, (2-(((S)-1-(2-Fluoropyridin-4-yl)ethyl)amino)thieno[3,2-d]pyrimidin-4-yl)((S)-3-hydroxypyrrolidin-1-yl)methanone], the Ratio at adenosine A2B receptor (setting [2]) is listed as 8.11. For the same compound, the IC50 at adenosine A2B receptor is 100 to 500 nM; on adenosine A2A receptor it was greater than 500 nM.
Taken in the same sequence, the figures for `C[C@H](Nc1nc(C(=O)N2CC[C@@H](O)C2)c2sccc2n1)c1ccnc(F)c1` [Example Z408, (2-(((S)-1-(2-Fluoropyridin-4-yl)ethyl)amino)thieno[3,2-d]pyrimidin-4-yl)((R)-3-hydroxypyrrolidin-1-yl)methanone] were 6.69, 50 to 100 nM and greater than 500 nM.
For `C[C@H](Nc1nc(C(=O)NCCc2cccc(Oc3ccccc3)c2)c2sccc2n1)c1cncc(F)c1` [Example Z417, (S)-2-((1-(5-Fluoropyridin-3-yl)ethyl)amino)-N-(3-phenoxyphenethyl)thieno[3,2-d]pyrimidine-4-carboxamide], the Ratio at adenosine A2B receptor (setting [2]) is 4.87. Further, the IC50 is 100 to 500 nM on adenosine A2B receptor and greater than 500 nM on adenosine A2A receptor.
On to `COc1ccc(CCNC(=O)c2nc(N[C@@H](C)c3cncc(F)c3)nc3ccsc23)cc1` [Example Z420, (S)-2-((1-(5-Fluoropyridin-3-yl)ethyl)amino)-N-(4-methoxyphenethyl)thieno[3,2-d]pyrimidine-4-carboxamide], for which the Ratio on adenosine A2B receptor (setting [2]) is 5.38. The IC50 at adenosine A2B receptor was in the range of 50 to 100 nM; on adenosine A2A receptor, 100 to 500 nM.
Taken in the same sequence, the figures for `COC(=O)c1ccc(CCNC(=O)c2nc(N[C@@H](C)c3cncc(F)c3)nc3ccsc23)cc1` [Example Z423, Methyl (S)-4-(2-(2-((1-(5-fluoropyridin-3-yl)ethyl)amino)thieno[3,2-d]pyrimidine-4-carboxamido)ethyl)benzoate] were 5.22, 100 to 500 nM and greater than 500 nM.
With `C[C@H](Nc1nc(C(=O)NCCC2CCCC2)c2sccc2n1)c1ccccn1` [Example Z424, (S)—N-(2-Cyclopentylethyl)-2-((1-(pyridin-2-yl)ethyl)amino)thieno[3,2-d]pyrimidine-4-carboxamide], the Ratio on adenosine A2B receptor (setting [2]) is 1.46. In addition, the IC50 at adenosine A2B receptor and on adenosine A2A receptor was 50 to 100 nM throughout.
With `C[C@H](Nc1nc(C(=O)NCCC2CCN(C(=O)OC(C)(C)C)C2)c2sccc2n1)c1ccccn1` (stereo partly drawn) [Example Z425, tert-Butyl 3-(2-(2-(((S)-1-(pyridin-2-yl)ethyl)amino)thieno[3,2-d]pyrimidine-4-carboxamido)ethyl)pyrrolidine-1-carboxylate], the Ratio at adenosine A2B receptor (setting [2]) stood at 0.82. Further, the figures for the IC50 on adenosine A2B receptor and on adenosine A2A receptor were 100 to 500 nM and 50 to 100 nM, respectively.
